Data on three molecules can be found in patent US10870647B2, “Imidazopyridine derivative, method for preparing same, and pharmaceutical composition containing same as active ingredient for preventing or treating cancer” (DAEGU-GYEONGBUK MEDICAL INNOVATION FOUNDATION, priority 2016, dated 2020).

Experiment in all cases: Kinase selectivity, scanMAX Kinase assay panel (DiscoverX), % control at 1 uM
Format in all cases: binding

Test [1] addresses T1, scanMAX Kinase assay panel (Homo sapiens, UniProt Q13523).
T1 construct: purchased DiscoverX
The note with it: PRP4; 1 uM; read-out: Percent Control (%). The gist of the method: (§1)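 Each kinase was first exposed to the test compound at 1 uM in DMSO. Signal was then normalised to positive and negative controls to give % control. Finally, any enzyme showing <35% control was judged inhibited.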

Test [2] concerns the target T2, scanMAX Kinase assay panel (Homo sapiens, UniProt P35968).
T2 construct: purchased DiscoverX
The note with it: VEGFR2; 1 uM; read-out: Percent Control (%). The gist of the method:
as §1

For test [3], the target named is T3, scanMAX Kinase assay panel (Homo sapiens, UniProt O94921).
T3 construct: purchased DiscoverX
T3 sequence (O94921 whole entry): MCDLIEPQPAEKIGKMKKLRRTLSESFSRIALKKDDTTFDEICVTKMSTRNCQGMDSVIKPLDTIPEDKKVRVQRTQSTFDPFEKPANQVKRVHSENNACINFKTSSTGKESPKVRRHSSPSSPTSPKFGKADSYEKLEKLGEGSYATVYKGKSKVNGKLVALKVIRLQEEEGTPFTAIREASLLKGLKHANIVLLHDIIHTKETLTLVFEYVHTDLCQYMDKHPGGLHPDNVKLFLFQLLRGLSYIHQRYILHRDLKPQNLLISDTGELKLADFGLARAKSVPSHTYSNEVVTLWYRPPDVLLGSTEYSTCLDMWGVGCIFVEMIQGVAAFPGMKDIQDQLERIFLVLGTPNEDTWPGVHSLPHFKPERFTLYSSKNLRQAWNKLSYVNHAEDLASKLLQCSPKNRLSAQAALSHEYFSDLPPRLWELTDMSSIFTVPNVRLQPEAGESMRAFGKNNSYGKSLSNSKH
The note with it: PFTK1; 1 uM; read-out: Percent Control (%). An outline of the steps:
as §1

The target of test [4] is T4, scanMAX Kinase assay panel (Homo sapiens, UniProt P36894).
T4 construct: purchased DiscoverX
The note with it: BMPR1A; 1 uM; read-out: Percent Control (%). The gist of the method:
as §1

The target of test [5] is T5, scanMAX Kinase assay panel (Homo sapiens, UniProt P51956).
T5 construct: purchased DiscoverX
T5 sequence (P51956 1-506): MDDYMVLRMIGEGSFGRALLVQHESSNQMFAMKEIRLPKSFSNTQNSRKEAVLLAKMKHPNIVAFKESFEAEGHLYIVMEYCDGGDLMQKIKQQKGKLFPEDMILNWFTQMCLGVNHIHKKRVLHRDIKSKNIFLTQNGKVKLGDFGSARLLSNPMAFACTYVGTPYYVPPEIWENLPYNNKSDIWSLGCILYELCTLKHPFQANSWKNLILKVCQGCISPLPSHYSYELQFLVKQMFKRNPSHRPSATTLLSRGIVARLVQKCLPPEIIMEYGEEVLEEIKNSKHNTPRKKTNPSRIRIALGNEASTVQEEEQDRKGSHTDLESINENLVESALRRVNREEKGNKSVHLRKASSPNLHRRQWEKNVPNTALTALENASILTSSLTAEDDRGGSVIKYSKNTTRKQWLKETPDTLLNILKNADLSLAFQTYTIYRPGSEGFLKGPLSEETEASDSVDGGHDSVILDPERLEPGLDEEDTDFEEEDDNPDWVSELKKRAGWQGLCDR
The note with it: NEK3; 1 uM; read-out: Percent Control (%). An outline of the steps: as §1

Test [6] addresses T6, scanMAX Kinase assay panel (Homo sapiens, UniProt P57058).
T6 construct: purchased DiscoverX
T6 sequence (P57058 1-714): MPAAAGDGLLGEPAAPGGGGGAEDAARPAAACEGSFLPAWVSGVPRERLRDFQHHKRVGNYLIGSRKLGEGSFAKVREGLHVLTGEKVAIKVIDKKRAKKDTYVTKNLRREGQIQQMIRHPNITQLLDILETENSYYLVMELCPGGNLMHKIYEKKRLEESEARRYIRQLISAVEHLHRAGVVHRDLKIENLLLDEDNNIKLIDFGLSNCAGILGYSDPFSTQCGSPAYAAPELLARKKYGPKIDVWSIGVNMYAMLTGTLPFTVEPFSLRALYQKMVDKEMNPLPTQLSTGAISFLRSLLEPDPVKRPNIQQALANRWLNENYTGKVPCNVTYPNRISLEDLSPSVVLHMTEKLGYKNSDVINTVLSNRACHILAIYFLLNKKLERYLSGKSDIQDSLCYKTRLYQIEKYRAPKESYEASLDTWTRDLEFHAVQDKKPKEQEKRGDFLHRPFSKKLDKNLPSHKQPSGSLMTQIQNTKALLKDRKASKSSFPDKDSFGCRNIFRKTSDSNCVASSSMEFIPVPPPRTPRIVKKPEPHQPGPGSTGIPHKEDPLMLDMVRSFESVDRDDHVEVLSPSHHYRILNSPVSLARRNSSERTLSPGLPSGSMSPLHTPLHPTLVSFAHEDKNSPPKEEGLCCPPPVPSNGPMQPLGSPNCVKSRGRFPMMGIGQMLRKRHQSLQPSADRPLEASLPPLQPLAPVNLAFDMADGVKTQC
The note with it: HUNK; 1 uM; read-out: Percent Control (%). The gist of the method: as §1

Test [7] addresses T7, scanMAX Kinase assay panel (Homo sapiens, UniProt O75716).
T7 construct: purchased DiscoverX
The note with it: STK16; 1 uM; read-out: Percent Control (%). The gist of the method: as §1

The target of test [8] is T8, scanMAX Kinase assay panel (Homo sapiens, UniProt P08581).
T8 construct: purchased DiscoverX
The note with it: MET; 1 uM; read-out: Percent Control (%). An outline of the steps:
as §1

The target in test [9] is T9, scanMAX Kinase assay panel (Homo sapiens, UniProt P42336, Q546K).
T9 construct: purchased DiscoverX
T9 sequence (P42336 whole entry Q546K): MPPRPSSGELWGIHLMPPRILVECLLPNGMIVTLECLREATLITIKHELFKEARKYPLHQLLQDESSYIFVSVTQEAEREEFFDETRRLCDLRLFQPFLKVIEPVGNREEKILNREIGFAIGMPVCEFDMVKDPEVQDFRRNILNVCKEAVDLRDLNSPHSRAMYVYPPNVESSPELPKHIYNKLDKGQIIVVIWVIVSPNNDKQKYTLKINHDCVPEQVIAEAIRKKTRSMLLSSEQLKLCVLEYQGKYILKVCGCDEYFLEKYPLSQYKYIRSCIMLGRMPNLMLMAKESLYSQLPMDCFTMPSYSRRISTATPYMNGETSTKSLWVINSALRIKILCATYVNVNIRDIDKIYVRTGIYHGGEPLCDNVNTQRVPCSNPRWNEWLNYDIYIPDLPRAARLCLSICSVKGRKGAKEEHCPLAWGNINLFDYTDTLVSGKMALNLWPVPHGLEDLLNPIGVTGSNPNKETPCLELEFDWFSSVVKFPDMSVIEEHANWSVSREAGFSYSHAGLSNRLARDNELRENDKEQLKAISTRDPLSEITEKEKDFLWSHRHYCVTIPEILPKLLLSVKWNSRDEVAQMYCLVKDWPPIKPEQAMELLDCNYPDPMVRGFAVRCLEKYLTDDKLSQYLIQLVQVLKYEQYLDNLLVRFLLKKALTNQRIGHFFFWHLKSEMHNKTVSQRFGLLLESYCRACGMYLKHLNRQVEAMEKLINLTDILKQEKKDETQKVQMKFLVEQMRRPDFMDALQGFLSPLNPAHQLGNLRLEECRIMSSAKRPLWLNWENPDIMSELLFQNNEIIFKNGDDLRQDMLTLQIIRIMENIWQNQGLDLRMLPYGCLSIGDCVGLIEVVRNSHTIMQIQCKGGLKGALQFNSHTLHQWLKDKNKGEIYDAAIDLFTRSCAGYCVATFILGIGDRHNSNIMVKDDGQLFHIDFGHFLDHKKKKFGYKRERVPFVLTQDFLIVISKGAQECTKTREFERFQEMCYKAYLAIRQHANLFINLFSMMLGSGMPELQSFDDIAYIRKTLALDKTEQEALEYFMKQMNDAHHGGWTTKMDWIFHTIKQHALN
The note with it: PIK3CA (Q546K); 1 uM; read-out: Percent Control (%). The gist of the method:
as §1

Test [10] concerns the target T10, scanMAX Kinase assay panel (Homo sapiens, UniProt O96013).
T10 construct: purchased DiscoverX
The note with it: PAK4; 1 uM; read-out: Percent Control (%). The gist of the method:
as §1

Test [11] addresses T11, scanMAX Kinase assay panel (Homo sapiens, UniProt P16234).
T11 construct: purchased DiscoverX
The note with it: PDGFRA; 1 uM; read-out: Percent Control (%). An outline of the steps: as §1

In test [12] the target is T12, scanMAX Kinase assay panel (Homo sapiens, UniProt P07947).
T12 construct: purchased DiscoverX
The note with it: YES; 1 uM; read-out: Percent Control (%). The gist of the method: as §1

Test [13] addresses T13, scanMAX Kinase assay panel (Homo sapiens, UniProt P42684).
T13 construct: purchased DiscoverX
The note with it: ABL2; 1 uM; read-out: Percent Control (%). The gist of the method:
as §1

For test [14], the target named is T14, scanMAX Kinase assay panel (Homo sapiens, UniProt Q9HC98).
T14 construct: purchased DiscoverX
T14 sequence (Q9HC98 whole entry): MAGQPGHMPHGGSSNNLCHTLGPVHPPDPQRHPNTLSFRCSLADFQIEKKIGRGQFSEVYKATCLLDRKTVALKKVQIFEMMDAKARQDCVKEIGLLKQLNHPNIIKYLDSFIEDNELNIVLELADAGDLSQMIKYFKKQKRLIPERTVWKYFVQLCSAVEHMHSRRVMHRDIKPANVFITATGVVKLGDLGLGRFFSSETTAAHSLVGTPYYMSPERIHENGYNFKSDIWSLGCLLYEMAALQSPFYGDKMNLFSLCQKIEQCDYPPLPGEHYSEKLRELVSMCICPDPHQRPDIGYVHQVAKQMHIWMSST
The note with it: NEK6; 1 uM; read-out: Percent Control (%). The gist of the method: as §1

T2 sequence (P35968 20-1356): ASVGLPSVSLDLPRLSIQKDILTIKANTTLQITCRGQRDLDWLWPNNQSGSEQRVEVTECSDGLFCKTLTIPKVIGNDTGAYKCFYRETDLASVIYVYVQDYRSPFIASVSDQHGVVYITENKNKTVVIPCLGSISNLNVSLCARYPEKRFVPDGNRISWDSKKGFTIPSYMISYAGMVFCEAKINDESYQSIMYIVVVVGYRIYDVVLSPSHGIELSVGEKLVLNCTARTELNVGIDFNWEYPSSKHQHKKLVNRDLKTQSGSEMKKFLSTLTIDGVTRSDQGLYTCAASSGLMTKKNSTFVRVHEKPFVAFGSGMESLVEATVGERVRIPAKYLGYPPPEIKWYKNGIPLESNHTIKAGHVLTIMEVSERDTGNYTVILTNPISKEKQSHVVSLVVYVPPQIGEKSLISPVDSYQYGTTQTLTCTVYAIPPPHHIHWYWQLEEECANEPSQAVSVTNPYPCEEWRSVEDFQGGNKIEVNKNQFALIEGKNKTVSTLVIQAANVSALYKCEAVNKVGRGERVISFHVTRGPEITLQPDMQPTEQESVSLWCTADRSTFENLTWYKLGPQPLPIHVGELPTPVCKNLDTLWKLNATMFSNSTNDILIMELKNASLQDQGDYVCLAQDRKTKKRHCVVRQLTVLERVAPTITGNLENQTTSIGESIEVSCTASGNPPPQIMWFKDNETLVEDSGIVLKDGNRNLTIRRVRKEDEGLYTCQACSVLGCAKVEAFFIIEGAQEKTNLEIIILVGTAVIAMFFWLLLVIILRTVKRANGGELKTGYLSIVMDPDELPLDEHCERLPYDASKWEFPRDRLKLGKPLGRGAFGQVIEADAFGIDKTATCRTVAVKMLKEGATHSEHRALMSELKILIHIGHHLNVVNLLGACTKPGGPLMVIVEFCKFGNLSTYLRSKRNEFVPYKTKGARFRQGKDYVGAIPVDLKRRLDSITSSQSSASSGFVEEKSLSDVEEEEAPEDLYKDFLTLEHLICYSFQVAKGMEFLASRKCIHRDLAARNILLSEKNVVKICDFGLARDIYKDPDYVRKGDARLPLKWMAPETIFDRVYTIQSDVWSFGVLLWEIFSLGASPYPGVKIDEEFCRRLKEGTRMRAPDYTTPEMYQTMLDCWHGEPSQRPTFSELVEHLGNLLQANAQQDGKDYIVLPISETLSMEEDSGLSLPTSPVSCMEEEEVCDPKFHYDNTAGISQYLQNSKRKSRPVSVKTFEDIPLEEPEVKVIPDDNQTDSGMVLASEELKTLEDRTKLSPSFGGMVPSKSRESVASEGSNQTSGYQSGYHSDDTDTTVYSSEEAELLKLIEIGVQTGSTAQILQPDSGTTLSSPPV
T1 sequence (Q13523 whole entry): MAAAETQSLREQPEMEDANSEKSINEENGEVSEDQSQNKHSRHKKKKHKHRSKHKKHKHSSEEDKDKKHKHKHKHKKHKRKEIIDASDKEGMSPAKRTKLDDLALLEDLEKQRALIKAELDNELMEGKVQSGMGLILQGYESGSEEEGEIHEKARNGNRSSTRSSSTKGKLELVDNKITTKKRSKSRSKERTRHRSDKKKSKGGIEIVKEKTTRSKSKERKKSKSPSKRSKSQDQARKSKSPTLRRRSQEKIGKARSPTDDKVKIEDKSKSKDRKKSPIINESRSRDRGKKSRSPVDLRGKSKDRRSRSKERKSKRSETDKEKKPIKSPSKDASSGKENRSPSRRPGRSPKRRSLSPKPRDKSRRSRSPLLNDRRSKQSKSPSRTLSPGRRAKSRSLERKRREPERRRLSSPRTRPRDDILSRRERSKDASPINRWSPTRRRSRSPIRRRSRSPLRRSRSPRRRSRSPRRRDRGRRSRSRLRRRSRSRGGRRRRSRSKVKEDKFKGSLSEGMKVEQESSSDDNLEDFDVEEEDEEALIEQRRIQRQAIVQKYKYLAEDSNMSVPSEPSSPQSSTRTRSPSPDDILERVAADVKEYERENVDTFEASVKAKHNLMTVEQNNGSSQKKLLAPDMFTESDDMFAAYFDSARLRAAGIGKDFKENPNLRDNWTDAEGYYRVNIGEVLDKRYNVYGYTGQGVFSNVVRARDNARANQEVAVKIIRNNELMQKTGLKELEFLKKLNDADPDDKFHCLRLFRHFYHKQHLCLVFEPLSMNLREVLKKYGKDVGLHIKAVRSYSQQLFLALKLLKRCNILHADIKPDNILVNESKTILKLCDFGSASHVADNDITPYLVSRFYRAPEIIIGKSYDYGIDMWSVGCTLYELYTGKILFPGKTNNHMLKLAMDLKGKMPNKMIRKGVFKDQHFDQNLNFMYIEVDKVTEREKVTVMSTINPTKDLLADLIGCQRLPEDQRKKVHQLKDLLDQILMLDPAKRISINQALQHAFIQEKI
T10 sequence (O96013 whole entry): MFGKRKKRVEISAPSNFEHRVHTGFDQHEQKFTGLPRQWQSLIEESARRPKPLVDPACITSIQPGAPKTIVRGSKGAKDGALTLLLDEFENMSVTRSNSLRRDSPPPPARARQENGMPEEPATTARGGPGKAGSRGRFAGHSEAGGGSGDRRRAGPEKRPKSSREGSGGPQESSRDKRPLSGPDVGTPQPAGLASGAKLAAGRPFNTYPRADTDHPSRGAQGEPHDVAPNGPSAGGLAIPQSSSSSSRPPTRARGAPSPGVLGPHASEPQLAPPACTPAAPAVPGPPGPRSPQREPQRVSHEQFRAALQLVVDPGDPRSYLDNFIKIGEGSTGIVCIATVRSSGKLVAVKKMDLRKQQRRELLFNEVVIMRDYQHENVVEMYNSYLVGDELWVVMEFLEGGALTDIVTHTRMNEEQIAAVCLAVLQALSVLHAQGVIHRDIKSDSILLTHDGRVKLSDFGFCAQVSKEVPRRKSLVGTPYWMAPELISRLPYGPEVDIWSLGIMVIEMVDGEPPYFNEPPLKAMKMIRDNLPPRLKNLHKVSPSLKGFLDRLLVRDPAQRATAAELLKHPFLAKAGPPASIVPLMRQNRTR

For `Cc1ccc(C(=O)Nc2ccc(CN3CCN(C)CC3)c(C(F)(F)F)c2)cc1C#Cc1cnc2c(Nc3cnn(C)c3)cccn12` [Example 1, 4-methyl-3-((8-((1-methyl-1H-pyrazol-4-yl)amino)imidazo[1,2-a]pyridin-3-yl)ethynyl)-N-(4-((4-methylpiperazin-1-yl)methyl)-3-(trifluoromethyl)phenyl)benzamide], the remaining binding at 1 µM in test [1] stood at 89%; in test [2], 5%; in test [3] it was 11%; in test [4], 77%; in test [5], 64%; in test [6], 74%. Moreover, the remaining binding at 1 µM in [7] was 38%; in [8], 18%; in [9], 83%; in [10], 85%; in [11], 1%; in test [12], 1%. Moreover, the remaining binding at 1 µM in test [13] is 0%; in [14], 65%.

Turning to `Cc1ccc(NC(=O)C2(C(=O)Nc3ccc(F)cc3)CC2)cc1C#Cc1cnc2c(Nc3cnn(C(C)C)c3)cccn12` [Example 78], the remaining binding at 1 µM in test [1] was 100%; in test [2], 63%; in test [3], 100%; in test [4], 94%; in [5], 96%; in test [6], 93%. Further, the remaining binding at 1 µM came to 99% in [7]; 100% in test [8]; 89% in [9]; 100% in [10]; 29% in [11]; 100% in test [12]. Moreover, the remaining binding at 1 µM in [13] came to 14%; in test [14] it was 100%.

With `Cc1cn(-c2cc(NC(=O)c3ccc(C)c(C#Cc4cnc5c(Nc6cnn(C)c6)cccn45)c3)cc(C(F)(F)F)c2)cn1` [Example 12, 4-methyl-N-(3-(4-methyl-1H-imidazol-1-yl)-5-(trifluoromethyl)phenyl)-3-((8-((1-methyl-1H-pyrazol-4-yl)amino)imidazo[1,2-a]pyridin-3-yl)ethynyl)benzamide], the remaining binding at 1 µM in test [1] was 95%; in test [2], 55%; in [3], 87%; in [4] it was 60%; in test [5], 86%; in [6] it was 79%. The remaining binding at 1 µM in [7] was determined as 70%; in test [8] it was 47%; in test [9], 100%; in test [10] it was 98%; in [11], 4%; in [12], 2%. Moreover, the results for the remaining binding at 1 µM in test [13] and in [14] were 1% and 88%, respectively.
